Results: article PMC7939381, “MMP activation–associated aminopeptidase N reveals a bivalent 14-3-3 binding motif” (The Journal of Biological Chemistry, 2021)
Values belong to the molecule of their own block, whether it stands above or below them. Where a SMILES comes first, the peptide text is derived from it. [ ]: non-standard residue; d: D form. pT = C[C@@H](OP(=O)(O)O)[C@H](N)C(=O)O; pS = N[C@@H](COP(=O)(O)O)C(=O)O

Key:
His6-14-3-3β/α = test: pulldown of His6-14-3-3β/α from E. coli cell lysate with biotinylated peptides; format: binding, human; conditions: biotinylated peptide on streptavidin beads; NTA-Atto488 stained SDS-PAGE, Fig. S2B
Method: (§1) 14-3-3–overexpressing E. coli cell lysate was prepared by lysing E. coli cells via sonication in pulldown buffer and removing cell debris by ultracentrifugation (53,350 rcf, 45 min, 4 °C). 24 nmol of Streptavidin Sepharose High Performance beads (GE Healthcare) were equilibrated with pulldown buffer (50 mM HEPES, pH 7.4, 250 mM NaCl, 20 mM MgCl2) and incubated with 24 nmol of biotin-1, biotin-6, or no peptide for 45 min on ice. Afterward, the beads were washed three times with pulldown buffer. Subsequently, the beads were incubated for 120 min in the prepared cell lysate. After incubation, beads were washed three times with pulldown buffer and split in half either for direct SDS-PAGE or for competition analysis, respectively. For competition, beads incubated with biotin-1 were incubated with 96 nmol of acetylated peptide 1 for 60 min and washed three times with pulldown buffer. For SDS-PAGE, 6 nmol of beads were added per lane on a Tris-Tricine ([52]) gel and run for 120 min at 150 V. After electrophoresis, gel was fixated for 90 min in a solution of 50% water, 40% EtOH, and 10% acetic acid and consequently washed two times for 30 min in water. Staining of the His6-tagged proteins in the gel was performed in a 1:1000 dilution of a 1 μg/μl solution of NTA-Atto488 (Sigma–Aldrich) for 60 min. Access stain was removed by two washing steps, each 60 min, in water. […]

14-3-3β/α = target: T1, 14-3-3β/α (Homo sapiens, UniProt P31946); test: direct binding FP assay, 14-3-3β/α; conditions: FITC-labeled peptide, Fig. 2C and Fig. S1
T1 construct: N-terminally His6-tagged 14-3-3 full-length proteins were expressed with heterologous bacterial expression; made in house
T1 sequence (P31946 1-246): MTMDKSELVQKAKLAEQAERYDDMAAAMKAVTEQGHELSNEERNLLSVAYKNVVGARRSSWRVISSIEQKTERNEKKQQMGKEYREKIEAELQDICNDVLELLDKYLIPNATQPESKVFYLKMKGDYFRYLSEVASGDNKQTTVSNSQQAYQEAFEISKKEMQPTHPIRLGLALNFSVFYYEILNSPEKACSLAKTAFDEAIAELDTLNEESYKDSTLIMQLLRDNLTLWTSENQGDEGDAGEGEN
Method: (§2) For the FP assay, the 14-3-3 proteins were diluted to a protein-specific start concentration in FP buffer (10 mM HEPES, pH 7.4, 150 mM NaCl, 2 mM DTT, 0.01% Tween 20). DMSO stocks of peptides were diluted in FP buffer to a concentration of 30 nM. For the assay, 10 μl of FP buffer were pipetted in 20 wells of a 384-well Corning black round bottom plate. A dilution series with 10 μl of protein solution was performed, and 5 μl of peptide solution was added to each well for a final volume of 15 μl. The plate was incubated for 60 min at room temperature. Measurement was performed at 25 °C in a Tecan Spark20M plate reader (λex = 470 nm, λem = 525 nm). Data analysis was performed with GraphPad Prism (version 5.03), and KD values were determined via a nonlinear regression fit of dose-response curves with variable slope (four parameters).

His6-14-3-3η = test: pulldown of His6-14-3-3η from E. coli cell lysate with biotinylated peptides; format: binding, human; conditions: biotinylated peptide on streptavidin beads; NTA-Atto488 stained SDS-PAGE, Fig. 2E
Method: as §1

14-3-3η [1] = target: T2, 14-3-3η (Homo sapiens, UniProt Q04917); test: isothermal titration calorimetry (ITC) with 14-3-3η; format: binding; conditions: T = 298 K; peptide per 14-3-3 protomer; mean ± S.D., n = 3
T2 construct: N-terminally His6-tagged 14-3-3 full-length proteins were expressed with heterologous bacterial expression; made in house
T2 sequence (Q04917 1-246): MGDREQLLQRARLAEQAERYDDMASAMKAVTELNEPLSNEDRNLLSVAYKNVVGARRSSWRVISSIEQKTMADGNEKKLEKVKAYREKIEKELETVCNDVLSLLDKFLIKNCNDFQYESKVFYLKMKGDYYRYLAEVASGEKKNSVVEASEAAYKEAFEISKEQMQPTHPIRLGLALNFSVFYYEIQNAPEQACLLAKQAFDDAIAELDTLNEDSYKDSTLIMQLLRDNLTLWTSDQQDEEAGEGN
Method: The ITC experiments were performed on an automated MicroCal iTC200 (Malvern Panalytical). To prepare 14-3-3 proteins for ITC measurements, a buffer exchange to ITC buffer (50 mM HEPES, pH 7.4, 250 mM NaCl, 20 mM MgCl2) was performed on a Superdex 75 10/300 GL column (ÄKTA Pure FPLC system, GE Healthcare). For peptides 1, 7, and 17, a 500 μM solution of protein was titrated to a 50 μM solution of peptide in 18 steps (2-μl volume in 4 s, 180-s spacing) at 25 °C. For peptide 11, a 250 μM solution of protein was titrated to a 12.5 μM solution of peptide with the settings mentioned before. The reference power was set to […], and the stirring speed was set to 750 rpm. Analysis was performed using MicroCal ITC-ORIGIN analysis software.

14-3-3η [2] = target: T2, 14-3-3η; test: direct binding FP assay, 14-3-3η
Method: as §2

14-3-3σ = target: T3, 14-3-3σ (Homo sapiens, UniProt P31947); test: direct binding fluorescence polarization (FP) assay, 14-3-3σ; conditions: FITC-labeled peptide; Fig. 2A
T3 construct: N-terminally His6-tagged 14-3-3 full-length proteins were expressed with heterologous bacterial expression; made in house
T3 sequence (P31947 1-248): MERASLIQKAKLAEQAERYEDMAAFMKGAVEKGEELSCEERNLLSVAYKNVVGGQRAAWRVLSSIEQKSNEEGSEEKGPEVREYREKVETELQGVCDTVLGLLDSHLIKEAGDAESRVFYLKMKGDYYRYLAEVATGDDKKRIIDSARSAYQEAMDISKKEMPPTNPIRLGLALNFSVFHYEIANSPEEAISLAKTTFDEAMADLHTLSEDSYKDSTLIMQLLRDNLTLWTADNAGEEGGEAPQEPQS
Method: as §2

Molecule: CC(=O)N[C@@H](CC(N)=O)C(=O)N[C@@H](CCCCN)C(=O)N[C@@H](CC(N)=O)C(=O)N[C@@H](C)C(=O)N[C@@H](CC(N)=O)C(=O)N[C@@H](COP(=O)(O)O)C(=O)N[C@@H](CO)C(=O)N1CCC[C@H]1C(=O)N[C@H](C(=O)O)C(C)C [compound 1] (Ac-NKNAN[pS]SPV-OH)
pulldown of His6-14-3-3β/α (in words) (His6-14-3-3β/α): binds specifically
relative affinity of 14-3-3β/α compared with 14-3-3σ (relative affinity = 1) (14-3-3β/α): 5.7 fold
pulldown of His6-14-3-3η (in words) (His6-14-3-3η): binds specifically
binding stoichiometry N (ITC, 14-3-3η) (14-3-3η [1]): 1.05 ± 0.02
relative affinity of 14-3-3η compared with 14-3-3σ (relative affinity = 1) (14-3-3η [2]; FP assay, FITC-labeled peptide, Fig. 2C and Fig. S1): 18.6 fold

Molecule: CC(=O)N[C@@H](CCC(=O)O)C(=O)N[C@@H](CCCCN)C(=O)N[C@@H](CC(N)=O)C(=O)N[C@@H](CCCCN)C(=O)N[C@@H](CC(N)=O)C(=O)N[C@@H](C)C(=O)N[C@@H](CC(N)=O)C(=O)N[C@@H](COP(=O)(O)O)C(=O)N[C@@H](CO)C(=O)N1CCC[C@H]1C(=O)N[C@H](C(=O)N[C@@H](C)C(=O)N[C@@H](CO)C(=O)N[C@H](C(=O)N[C@H](C(=O)N1CCC[C@H]1C(=O)N[C@@H](CO)C(=O)N[C@@H](C)C(=O)N[C@@H](CO)C(=O)N[C@@H](C)C(=O)N[C@H](C(=O)N[C@H](C(=O)N[C@@H](CC(N)=O)C(=O)N1CCC[C@H]1C(=O)N[C@@H](C)C(=O)N[C@@H](CO)C(=O)N[C@@H](C)C(=O)N[C@H](C(=O)N[C@H](C(=O)N[C@@H](CC(C)C)C(=O)N[C@@H](CC(=O)O)C(=O)N[C@@H](CCC(N)=O)C(=O)N[C@@H](CO)C(=O)N[C@@H](CCCCN)C(=O)N[C@@H](C)C(=O)N[C@@H](Cc1c[nH]c2ccccc12)C(=O)N[C@@H](CC(N)=O)C(=O)N[C@@H](CCCNC(=N)N)C(=O)O)[C@@H](C)O)[C@@H](C)OP(=O)(O)O)[C@@H](C)O)[C@@H](C)O)[C@@H](C)O)[C@@H](C)O)C(C)C [compound 11] (Ac-EKNKNAN[pS]SPVASTTPSASATTNPASA[pT]TLDQSKAWNR-OH)
binding stoichiometry N (ITC, 14-3-3η) (14-3-3η [1]): 0.58 ± 0.01
increase in overall affinity of 7 versus 11 (14-3-3η, FP) (14-3-3η [2]; pThr^63 combined with site 1, Fig. 4A and Fig. S3): ~500 fold

binding toward 14-3-3σ in direct FP assay (in words) (14-3-3σ): did not show any binding
Molecule: KNANSpSPVA [compound 6, APN 39–47 pSer^44 peptide KNANSpSPVA, negative control]
